In PubChem BioAssay AID624482 (The Scripps Research Institute Molecular Screening Center, 2012):
Calls of active or inactive are those of the source.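 Rule for the calls: active = inhibition of the enzyme prolyl endopeptidase above 20%; inactive = inhibition at or below 20%.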

Target: Prolyl endopeptidase (Mus musculus) (UniProt Q9QUR6)
Experiment: prolyl endopeptidase enzyme blockade – biochemical, fluorescence, mouse, assay provider data, selectivity assay for PREPL inhibitor project (AID 624482)
Conditions: recombinant PEP, Z-Gly-Pro-AMC fluorescence; at 20 µM; active compounds read high

Chain of Prolyl endopeptidase (Mus musculus) (Q9QUR6 whole entry, looked up): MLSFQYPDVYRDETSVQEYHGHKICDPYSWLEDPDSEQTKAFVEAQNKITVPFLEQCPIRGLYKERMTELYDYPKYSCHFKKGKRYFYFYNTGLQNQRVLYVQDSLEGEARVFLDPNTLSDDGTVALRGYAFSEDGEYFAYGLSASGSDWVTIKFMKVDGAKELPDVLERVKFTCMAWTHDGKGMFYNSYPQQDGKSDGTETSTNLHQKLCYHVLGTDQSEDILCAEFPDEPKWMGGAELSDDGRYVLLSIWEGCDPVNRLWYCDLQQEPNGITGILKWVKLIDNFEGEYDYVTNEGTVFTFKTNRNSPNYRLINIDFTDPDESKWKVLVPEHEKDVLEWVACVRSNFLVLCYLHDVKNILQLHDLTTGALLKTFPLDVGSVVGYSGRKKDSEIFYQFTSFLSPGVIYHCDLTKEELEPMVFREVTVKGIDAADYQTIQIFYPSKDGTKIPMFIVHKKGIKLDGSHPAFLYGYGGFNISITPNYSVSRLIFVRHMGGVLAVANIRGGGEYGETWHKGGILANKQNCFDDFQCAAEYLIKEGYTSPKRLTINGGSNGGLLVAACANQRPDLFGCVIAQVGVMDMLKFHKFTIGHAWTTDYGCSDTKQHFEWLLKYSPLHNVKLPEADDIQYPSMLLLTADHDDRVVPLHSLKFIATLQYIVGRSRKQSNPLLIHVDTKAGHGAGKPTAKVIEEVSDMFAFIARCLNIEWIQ

**Q.** With CC(C)Cc1[nH]c(=O)c(C#N)c2c1CCC2 as the molecule, how does the inhibition read?
**A.** -17% (inactive)

**Q.** How did the inhibition turn out when COc1cc2nc(Nc3ccc(C)c(C)c3)nc(N)c2cc1OC was run?
**A.** 46%

**Q.** O=C(Nc1ccc2c(c1)OCCO2)c1cccc2nc3ccccc3nc12 was tested. Which inhibition did it give?
**A.** -26% (inactive)

**Q.** With N#Cc1c2c(c(-c3ccccc3)[nH]c1=O)CCCC2 as the molecule, how does the inhibition read?
**A.** -13% (inactive)

**Q.** How did the inhibition turn out when CCOc1ccc(CCNC(=O)c2ccc3c(=O)[nH]c4c(C(=O)NC(C)C)sc(=S)n4c3c2)cc1 was run?
**A.** -29% (inactive)
